Results taken from patent publication US20250011878A1, “METHOD TO DETECT RNA BIOMARKERS” (ITALFARMACO SPA, priority 2021, published 2025).
Where two headings read alike, the source gives them in different places.

Tests used:
macrophages = assay: in vitro macrophage differentiation in the presence of ITF3756; type: cell-based
[1] = dog, in vivo, 1000 mg/kg
PBMC = assay: Quantitative real-time PCR gene modulation in PBMC; type: cell-based, human; conditions: PBMC treated with 1 μM ITF3756, 4 hours; qPCR vs vehicle-treated cells
Protocol: The gene expression has been determined by comparing the expression of the above genes in the treated cells versus vehicle-treated cells. PBMC were resuspended in RPMI 1640 medium (Dutch modified, ThermoFisher) at the density of 1×10^6 cells/ml. Cells were plated in 6-well plates (Corning), 3 ml per well. Cells were treated with […] at four concentrations: 0.25, 0.5, 1 and 2 μM. Each treatment concentration was replicated in 3 wells for experimental triplicate test. Vehicle (DMSO 0.05%) treated cells were plated at the same density and volumes. Plates were incubated for 4 hours at 37° C. 5% C02. At the end of treatment incubation cells were collected for total RNA extraction. After treatment with the test compound, PBMC were withdrawn from 6-well plates and collected in 15 ml tubes (Falcon). Wells were washed once with 1 ml of PBS pH 7.4 (ThermoFisher) and the wash volume was added to the collected cell suspensions. […] RNA concentration was determined using Nano Drop 1000 spectrophotometer. […] 3 μl of cDNA corresponding to 40 ng of template were added to PCR reaction reagent for a total volume of 15 μl as shown below: The level of mRNA expression modulation was evaluated comparing the mRNA level in treated versus not-treated samples; all data were normalized versus the average expression signal of three housekeeping genes (reference genes: UBC, B2M and HPRT1) in the corresponding samples. […]

[2] = rat, in vivo, 1000 mg/kg

In the case of `O=C(NO)c1ccc(Cn2nnnc2-c2cccs2)cc1` [ITF3756, N-hydroxy-4-((5-(thiophen-2-yl)-1 H-tetrazol-1-yl)methyl)benzamide], the M1 macrophages (macrophages) was “increase in M1 macrophages”, the tolerability [1] was “well tolerated” and the IRF6 gene modulation (PBMC) was “upregulation”. For the same compound, the STAB1 gene modulation (PBMC) was “downmodulation” and the tolerability [2] was “well tolerated”.
